{
  "source": "patent EP1773779B1",
  "about": "“NICOTINIC RECEPTOR AGONISTS FOR THE TREATMENT OF INFLAMMATORY DISEASES” (Université Laval, priority 2004, dated 2006)",
  "key": {"[1]": {"test_system": "dogs naturally sensitized to the roundworm Ascaris suum", "experiment": "Dog model of lung hyper-responsiveness (metacholine, lung resistance)", "assay_type": "in vivo", "conditions": "12 hyperresponsive dogs, increasing concentrations of metacholine; Fig. 33", "description": "(§1) In this model 12 dogs naturally sensitized to the roundworm Ascaris suum were used in a cross-over study design. Four groups of 3 dogs were randomly formed, exposed to the allergen, and each animal was left either untreated or received alternalively, ASM-002 (4mg/kg 2x day in the food), or prednisone (1mg/kg 1x day in the food), the most commonly used corticosteroid drug used to treat inflammation in asthma.\nHyper-responsiveness is described as the capacity of the lung to react (to increase lung resistance) to a non-specific external stimuli like metacholine or to allergens. A hyper-responsive allergen-sensitized dog (asthmatic) will react to lower concentrations of metacholine compared to a non allergic dog. Similarly, improvement in lung hyper-responsivenes is shown by an increase in metacholine concentrations necessary to induce the same level of lung resistance.\nIncreasing concentrations of metacholine were administered with or without treatment with ASM-002 or Prednisone™ and lung resistance recorded."}, "[2]": {"test_system": "Ovalbumin-sensitized animals", "experiment": "Lung resistance to metacholine in mouse model of asthma (Flexi-vent)", "assay_type": "in vivo, mice", "conditions": "ASM-002 4mg/kg intra-nasally 3 days and 10 minutes prior to challenge; Salbutamol 10 minutes before; Fig. 31", "description": "Lung response to a broncho-constrictive agent, metacholine, was measured by a Flexi-vent® apparatus. Ovalbumin-sensitized animals were treated intra-nasally with ASM-002 (4mg/kg) during 3 days and 10 minutes prior to the metacholine challenge and compared to untreated OVA-sensitized animals. A negative control group of un-sensitized animals and a positive control group that received Salbutamol (Ventolin) 10 minutes before the metacholine challenge were also included."}, "[3]": {"test_system": "Leukotriene C4 (LTC4)production", "experiment": "LTC4 production by PAF-stimulated blood eosinophils (enzyme immunoassay)", "assay_type": "cell-based, Human", "conditions": "for LTC4: pre-incubated 18hours with analogs, then 1 µM PAF, untreated 1725.80", "description": "Blood eosinophils, the most increased inflammatory cells in asthma, were isolated by negative selection using bead-conjugated anti-CD16 monoclonal antibody and magnetic activating cell sorting. Cells were pre-incubated for 18hours with the various DMPP analogs and then stimulated with 1 µM platelet-activating factor (PAF) to produce LTC4 which was measured by enzyme immunoassay. […] Table 1 Effects of DMPP and analogs on LTC4 release.\nLeukotriene C4 (LTC4) is a inflammatory lipid mediator highly produced in asthma, it is released in large amounts by blood eosinophils.\nHuman blood eosinophils were isolated from blood of asthmatic patients, stimulated in vitro with platelet activating factor (PAF) to produce large amounts of LTC4 , and treated or not with 80 µM ASM-002."}, "[4]": {"test_system": "Tumor necrosis factor (TNF) release", "experiment": "TNF release by LPS-stimulated human blood monocytes (ELISA)", "assay_type": "cell-based", "description": "Human monocytes were isolated from the blood of asthmatic patients by Ficoll-paque density gradient, let to adhere to tissue culture plates and stimulated with LPS (100ng/ml) for 18 hours at 37°C with or without increasing concentrations of nicotine. The release of TNF, a potent pro-inflammatory mediator, was measured in the cell culture supernatant by the ELISA method. Results are expressed as a percentage release from LPS-stimulated untreated cells (Fig. 28).\nTumor necrosis factor (TNF) is a mediator released in inflammatory states. Human blood monocytes were stimulated in vitro with lipopolysaccharide (LPS) to produce large amounts of TNF, increasing doses of ASM-002 were added and the levels of TNF were measured (Fig. 37, EC50= 3µM, n=6, p= 0,0045 at 5 µm, 0,0014 at 10 µm and 0,0003 at 50 µm)."}, "[5]": {"test_system": "mouse tracheal airway smooth muscle", "experiment": "Isometric study on isolated mouse tracheal rings pre-contracted with metacholine", "conditions": "cumulative doses of ASM-002; Fig. 34, p=0.002", "description": "Tracheal rings were mounted isometrically to force transducers in organ baths containing Krebs bicarbonate solution at 37°C and bubbled with 95% O2- 5% CO2, pre-contracted with submaximal concentration of metacholine (10^-5) and cumulative doses of the analogs were added to the baths. Changes of tension are recorded. Results are expressed as a percentage of maximal contraction (Fig. 29).\n(§2) As described previously, tracheal or bronchial rings were mounted isometrically to force transducers in organ baths containing Krebs bicarbonate solution at 37°C and bubbled with 95% O2- 5% CO2,pre-contracted with submaximal concentration of metacholine cumulative doses of ASM-002 added. Changes of tension are recorded."}, "[6]": {"test_system": "bronchial rings from dog's lungs", "experiment": "Isometric study on dog bronchial rings pre-contracted with metacholine", "conditions": "cumulative doses of ASM-002; Fig. 35, p=0.004", "description": "as §2"}, "[7]": {"test_system": "bronchial rings from resected human lungs", "experiment": "Isometric study on human bronchial rings pre-contracted with metacholine", "conditions": "cumulative doses of ASM-002; Fig. 36", "description": "as §2"}, "[8]": {"test_system": "Ovalbumin-sensitized mice", "experiment": "Lung inflammation in ovalbumin-sensitized mice (cells in broncho-alveolar lavage)", "assay_type": "in vivo", "conditions": "intra-nasally 0.5 to 4 mg/kg/d for 3 days, n = 8, Fig. 30", "description": "Ovalbumin-sensitized mice (ri=8) were challenged with the allergen and simultaneously treated intra-nasally with increasing concentrations of ASM-002 (0.5 to 4 mg/kg/d) for 3 days. The number of cells recovered by broncho-alveolar lavage was used as a measure of lung inflammation."}, "[9]": {"test_system": "dogs naturally sensitized to the roundworm Ascaris suum", "experiment": "Dog asthma model: cellular inflammation in bronchoalveolar lavages", "assay_type": "in vivo", "conditions": "ASM-002 8 mg/kg (4mg/kg 2x day in the food), prednisone 1mg/kg 1x day in the food, n = 12; Fig. 32", "description": "as §1\nCellular inflammation was evaluated in the bronchoalveolar lavages."}},
  "data": [
    {"compound": "C[C@]12C=CC(=O)C=C1CC[C@@H]1[C@@H]2C(=O)C[C@@]2(C)[C@H]1CC[C@]2(O)C(=O)CO", "note": "[Prednisone, prednisone, reference compound]", "values": [
      {"measurement": "dogs with decreased lung resistance / improved hyper-responsiveness", "setting": "[1]", "value": "None of the 12 dogs"}
    ]},
    {"compound": "CC(C)(C)NCC(O)c1ccc(O)c(CO)c1", "note": "(stereo not shown) [Salbutamol, reference compound]", "values": [
      {"measurement": "lung resistance induced by metacholine", "setting": "[2]", "value": "This effect is similar to that obtained with Salbutamol"}
    ]},
    {"compound": "C[N+]1(C)CCN(c2ccccc2)CC1", "note": "[DMPP, Dimethylphenylpiperazinium, reference compound]", "values": [
      {"measurement": "LTC4", "setting": "[3]", "value": 545.00, "unit": "pg/mL"}
    ]},
    {"compound": "CC[N+]1(CC)CCN(c2ccccc2)CC1", "note": "[ASM-005]", "values": [
      {"measurement": "TNF release", "setting": "[4]; monocytes from asthmatic patients, LPS (100ng/ml) 18 hours at 37°C, increasing concentrations, Fig. 28", "value": "Except for ASM-005, all analogs tested had an inhibitory effect on TNF release"}
    ]},
    {"compound": "CCC[N+]1(C)CCN(c2ccccc2)CC1", "note": "[ASM-004]", "values": [
      {"measurement": "LTC4", "setting": "[3]", "value": 601.60, "unit": "pg/mL"}
    ]},
    {"compound": "1,1-dimethyl-4-phenylhomopiperazinium iodide [ASM-002]", "values": [
      {"measurement": "EC50", "setting": "[4]; LPS-stimulated human blood monocytes, increasing doses, n=6, Fig. 37, read-out: EC50, inhibition of TNF release", "value": 3000, "unit": "nM"},
      {"measurement": "TNF release", "setting": "[4]; all drugs at 40 µM, mean of 5 subjects, Fig. 38", "value": "inhibits TNF release"},
      {"measurement": "LTC4 production", "setting": "[3]; 80 µM, PAF-stimulated eosinophils of asthmatic patients, 6 patients, Fig. 39, p=0.0007", "value": "significant inhibition"},
      {"measurement": "LTC4", "setting": "[3]", "value": 246.40, "unit": "pg/mL"},
      {"measurement": "relaxing effect on pre-contracted tracheas", "setting": "[5]", "value": "relaxing effect"},
      {"measurement": "relaxing effect on pre-contracted bronchi", "setting": "[6]", "value": "relaxing effect"},
      {"measurement": "relaxing effect on pre-contracted bronchi", "setting": "[7]", "value": "relaxing effect"},
      {"measurement": "ED50, cellular inflammation in the lungs", "setting": "[8]", "value": 0.71, "unit": "mg/kg"},
      {"measurement": "lung resistance induced by metacholine", "setting": "[2]", "value": "significant reduction (return to baseline levels)"},
      {"measurement": "cellular inflammation in the lungs", "setting": "[9]", "value": "inhibits significantly the cellular inflammation"},
      {"measurement": "dogs with decreased lung resistance / improved hyper-responsiveness", "setting": "[1]", "value": "7 out of 12"}
    ]}
  ]
}
